# In US8124629B2, “Naphthylacetic acids” (Hoffmann-La Roche Inc., priority 2008, dated 2012):
# Molecular target: T1, human CRTH2 (Homo sapiens, UniProt Q9Y5Y4)
# T1 sequence (Q9Y5Y4 1-395): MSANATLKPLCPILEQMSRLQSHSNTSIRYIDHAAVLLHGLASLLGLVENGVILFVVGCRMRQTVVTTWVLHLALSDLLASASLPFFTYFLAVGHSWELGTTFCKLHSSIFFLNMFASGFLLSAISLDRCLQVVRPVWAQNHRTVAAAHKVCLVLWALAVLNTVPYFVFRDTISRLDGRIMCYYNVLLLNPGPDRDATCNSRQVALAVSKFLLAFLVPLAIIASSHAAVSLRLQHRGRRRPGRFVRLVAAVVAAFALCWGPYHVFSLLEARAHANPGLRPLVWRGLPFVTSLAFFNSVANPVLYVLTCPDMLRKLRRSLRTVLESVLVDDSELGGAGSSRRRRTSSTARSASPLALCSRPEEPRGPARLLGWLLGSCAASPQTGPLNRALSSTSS
# Test: Human CRTH2 Receptor Binding Assay (whole cell, [3H]ramatroban)
# Design: expressed in transfected cells; host or cells: CHO-K1
# Details: CHO-K1 cells expressing human CRTH2 and G-alpha16; 20 nM [3H]ramatroban; 1 hour, room temperature
# Description: A whole cell receptor binding assay using [^3H]ramatroban as the competing radioactive ligand was employed to evaluate the compound binding activity to human CRTH2. The radioactive ligand [^3H]ramatroban was synthesized according to Sugimoto et. al. (Eur. J. Pharmacol. 524, 30-37, 2005) to a specific activity of 42 Ci/mmol.
# A cell line stably expressing human CRTH2 was established by transfecting CHO-K1 cells with two mammalian expression vectors that harbored human CRTH2 and G-alpha16 cDNAs, respectively, using FuGene® 6 transfection reagent (from Roche). Stable clones expressing CRTH2 were selected by staining each clone with BM16 (BD Pharmingen™ from BD Biosciences, a division of Becton, Dickinson and Company), which is a rat monoclonal antibody to human CRTH2. The cells were maintained as monolayer cultures in Ham's F-12 medium containing 10% fetal bovine serum, 100 units/mL penicillin, 100 μg/mL streptomycin, 2 mM glutamine, 0.5 mg/mL G418 (geneticin) for CRTH2, and 0.2 mg/mL hygromycin-B (for G-alpha 16). For whole cell receptor binding assay, the monolayer cells were rinsed once with PBS (phosphate buffered saline), dissociated using ethylenediaminetetraacetate (Versene™ EDTA from Lonza Inc.), and suspended in PBS containing 10 mM MgCl2 and 0.06% BSA (bovine serum albumin) at 1.5×10^6 cells/mL.
# The binding reactions (0.2 mL) were performed in 96-well plates at room temperature in PBS containing 1.5×10^5 cells, 10 mM MgCl2, 0.06% BSA, 20 nM [^3H]ramatroban, and test compound at various concentrations. After 1 hour of binding reactions, the cells were harvested on GF™/B filter microplates (microtiter plates with embedded glass fiber from Perkin Elmer, Inc.) and washed 5 times with PBS using a Filtermate™ Harvester (a cell harvester that harvests and washes cells from microplates from PerkinElmer, Inc.). The radioactivities bound to the cells were determined using a microplate scintillation counter (TopCount® NXT, from PerkinElmer, Inc.) after adding 50 μL of Microscint™ 20 scintillation fluid (from PerkinElmer, Inc.) to each well of the filter plates. The radioactivity from non-specific binding was determined by replacing compound with 10 μM of 15(R)-15-methyl PGD2 (from Cayman Chemical Company) in the reaction mixtures. The radioactivity bound to the cells in the absence of compound (total binding) was determined by replacing compound with 0.25% of DMSO (dimethyl sulfoxide) in the reaction mixture. Specific binding data were obtained by subtracting the radioactivity of non-specific binding from each binding data.
# The IC50 value is defined as the concentration of the tested compound that is required for 50% inhibition of total specific binding. In order to calculate the IC50 value, the percent inhibition data were determined for 7 concentrations for each compound. The percent inhibition for a compound at each concentration was calculated according to the following formula, [1-(specific binding in the presence of compound)/(total specific binding)]×100. The IC50 value was then obtained by fitting the percent inhibition data to a sigmoidal dose-response (4 parameter logistic) model in the XLfit® software Excel add-in program [from ID Business Solutions Ltd., model 205, where F(x)=(A+(B−A)/(1+((C/×)^D)))].
row,IC50,SMILES
1,3.9 nM,"Cc1c(CC(=O)O)cc2ccc(F)cc2c1Cc1ccc(S(C)(=O)=O)cc1 [Example 10-1, [6-Fluoro-4-(4-methanesulfonyl-benzyl)-3-methyl-naphthalen-2-yl]-acetic acid]"
2,5 nM,"Cc1c(CC(=O)O)cc2ccc(F)cc2c1Cc1ccc(OCc2ccccc2)cc1 [Example 10-8, [4-(4-Benzyloxy-benzyl)-6-fluoro-3-methyl-naphthalen-2-yl]-acetic acid]"
3,4.3 nM,"CCS(=O)(=O)c1ccc(Cc2cc(CC(=O)O)cc3ccc(F)cc23)cc1 [Example 8-9, [4-(4-Ethanesulfonyl-benzyl)-6-fluoro-naphthalen-2-yl]-acetic acid]"
4,40.4 nM,"COC(c1ccc(S(C)(=O)=O)cc1)c1cc(CC(=O)O)cc2ccc(F)cc12 (stereo not drawn) [Example 18-1, {6-Fluoro-4-[(4-methanesulfonyl-phenyl)-methoxy-methyl]-naphthalen-2-yl}-acetic acid]"
5,32.5 nM,"Cc1c(CC(=O)O)cc2ccc(F)cc2c1Cc1ccc(-c2nnnn2C)cc1 [Example 10-10, {6-Fluoro-3-methyl-4-[4-(1-methyl-1H-tetrazol-5-yl)-benzyl]-naphthalen-2-yl}-acetic acid]"
6,10.2 nM,"Cc1c(CC(=O)O)cc2ccc(F)cc2c1Cc1ccc(-c2cncnc2)cc1 [Example 12-2, [6-Fluoro-3-methyl-4-(4-pyrimidin-5-yl-benzyl)-naphthalen-2-yl]-acetic acid]"
7,31.9 nM,"Cc1cc(S(C)(=O)=O)ccc1C(O)c1cc(CC(=O)O)cc2ccc(F)cc12 (stereo not drawn) [Example 16-4, {6-Fluoro-4-[hydroxy-(4-methanesulfonyl-2-methyl-phenyl)-methyl]-naphthalen-2-yl}-acetic acid]"
8,15.9 nM,"CS(=O)(=O)c1ccc(C(O)c2cc(CC(=O)O)cc3ccc(Cl)cc23)cc1 (stereo not drawn) [Example 16-3, {6-Chloro-4-[hydroxy-(4-methanesulfonyl-phenyl)-methyl]-naphthalen-2-yl}-acetic acid]"
9,5.4 nM,"CCS(=O)(=O)c1ccc(Cc2cc(CC(=O)O)cc3ccc(F)cc23)c(C)c1 [Example 8-7, [4-(4-Ethanesulfonyl-2-methyl-benzyl)-6-fluoro-naphthalen-2-yl]-acetic acid]"
10,5.3 nM,"Cc1cc(S(C)(=O)=O)ccc1Cc1cc(CC(=O)O)cc2ccc(F)cc12 [Example 8-5, [6-Fluoro-4-(4-methanesulfonyl-2-methyl-benzyl)-naphthalen-2-yl]-acetic acid]"
11,79.3 nM,"Cc1c(CC(=O)O)cc2ccc(F)cc2c1Cc1ccc(OC(F)(F)F)cc1 [Example 15-4, [6-Fluoro-3-methyl-4-(4-trifluoromethoxy-benzyl)-naphthalen-2-yl]-acetic acid]"
12,16.1 nM,"CS(=O)(=O)c1ccc(C(O)c2cc(CC(=O)O)cc3ccc(F)cc23)c(Cl)c1 (stereo not drawn) [Example 16-1, {4-[(2-Chloro-4-methanesulfonyl-phenyl)-hydroxy-methyl]-6-fluoro-naphthalen-2-yl}-acetic acid]"
13,11.8 nM,"Cc1c(CC(=O)O)cc2ccc(F)cc2c1C(O)c1ccc(S(C)(=O)=O)cc1 (stereo not drawn) [Example 19-1, {6-Fluoro-4-[hydroxy-(4-methanesulfonyl-phenyl)-methyl]-3-methyl-naphthalen-2-yl}-acetic acid]"
14,83.8 nM,"Cc1c(CC(=O)O)cc2ccc(F)cc2c1Cc1cccc(Cl)c1 [Example 15-2, [4-(3-Chloro-benzyl)-6-fluoro-3-methyl-naphthalen-2-yl]-acetic acid]"
15,5.4 nM,"CS(=O)(=O)c1ccc(Cc2cc(CC(=O)O)cc3ccc(F)cc23)cc1C(F)(F)F [Example 8-6, [6-Fluoro-4-(4-methanesulfonyl-3-trifluoromethyl-benzyl)-naphthalen-2-yl]-acetic acid]"

# Further lines, the compound ahead of its results:
row,SMILES,IC50
1,"CCS(=O)(=O)c1ccc(C(=O)c2cc(CC(=O)O)cc3ccc(F)cc23)cc1 [Example 2-13, [4-(4-Ethanesulfonyl-benzoyl)-6-fluoro-naphthalen-2-yl]-acetic acid]",3 nM
2,"CS(=O)(=O)c1ccc(C(=O)c2cc(CC(=O)O)cc3ccc(F)cc23)cc1C(F)(F)F [Example 2-18, [6-Fluoro-4-(4-methanesulfonyl-3-trifluoromethyl-benzoyl)-naphthalen-2-yl]-acetic acid]",4.2 nM
3,"CS(=O)(=O)c1ccc(C(=O)c2cc(CC(=O)O)cc3ccc(F)cc23)c(F)c1 [Example 2-17, [6-Fluoro-4-(2-fluoro-4-methanesulfonyl-benzoyl)-naphthalen-2-yl]-acetic acid]",14.5 nM
4,"CN(C)S(=O)(=O)c1ccc(C(=O)c2cc(CC(=O)O)cc3ccc(F)cc23)cc1 [Example 2-14, [4-(4-Dimethylsulfamoyl-benzoyl)-6-fluoro-naphthalen-2-yl]-acetic acid]",2.7 nM
5,"O=C(O)Cc1cc(C(=O)c2ccc(S(=O)(=O)N3CCOCC3)cc2)c2cc(F)ccc2c1 [Example 2-16, {6-Fluoro-4-[4-(morpholine-4-sulfonyl)-benzoyl]-naphthalen-2-yl}-acetic acid]",3.3 nM
6,"CS(=O)(=O)c1cc(C(=O)c2cc(CC(=O)O)cc3ccc(F)cc23)ccc1F [Example 2-31, [6-Fluoro-4-(4-fluoro-3-methanesulfonyl-benzoyl)-naphthalen-2-yl]-acetic acid]",103 nM
7,"CS(=O)(=O)c1ccc(C(=O)c2cc(CC(=O)O)cc3cc(F)ccc23)cc1 [Example 2-4, [7-Fluoro-4-(4-methanesulfonyl-benzoyl)-naphthalen-2-yl]-acetic acid]",40.6 nM
8,"CCc1cc(C(=O)c2cc(CC(=O)O)cc3ccc(F)cc23)ccc1S(C)(=O)=O [Example 2-19, [4-(3-Ethyl-4-methanesulfonyl-benzoyl)-6-fluoro-naphthalen-2-yl]-acetic acid]",2.3 nM
9,"CS(=O)(=O)c1ccc(C(=O)c2cc(CC(=O)O)cc3cc(C(F)(F)F)ccc23)cc1 [Example 2-32, [4-(4-Methanesulfonyl-benzoyl)-7-trifluoromethyl-naphthalen-2-yl]-acetic acid]",272 nM
10,CC(C)(C)OC(=O)N1CCN(S(=O)(=O)c2ccc(C(=O)c3cc(CC(=O)O)cc4ccc(F)cc34)cc2)CC1 [Example 4-2],26.7 nM
11,"Cc1cc(S(C)(=O)=O)ccc1C(=O)c1cc(CC(=O)O)cc2ccc(F)cc12 [Example 2-5, [6-Fluoro-4-(4-methanesulfonyl-2-methyl-benzoyl)-naphthalen-2-yl]-acetic acid]",15.1 nM
12,"CNS(=O)(=O)c1ccc(C(=O)c2cc(CC(=O)O)cc3ccc(F)cc23)c(C)c1 [Example 2-25, [6-Fluoro-4-(2-methyl-4-methylsulfamoyl-benzoyl)-naphthalen-2-yl]-acetic acid]",8.9 nM
13,"CCOC(=O)N1CCN(S(=O)(=O)c2ccc(C(=O)c3cc(CC(=O)O)cc4ccc(F)cc34)cc2)CC1 [Example 4-1, 4-[4-(3-Carboxymethyl-7-fluoro-naphthalene-1-carbonyl)-benzenesulfonyl]-piperazine-1-carboxylic acid ethyl ester]",8.3 nM
14,"CCN(CC)S(=O)(=O)c1ccc(C(=O)c2cc(CC(=O)O)cc3ccc(F)cc23)cc1 [Example 2-22, [4-(4-Diethylsulfamoyl-benzoyl)-6-fluoro-naphthalen-2-yl]-acetic acid]",2.5 nM
15,"CCS(=O)(=O)c1ccc(C(=O)c2cc(CC(=O)O)cc3ccc(F)cc23)c(C)c1 [Example 2-20, [4-(4-Ethanesulfonyl-2-methyl-benzoyl)-6-fluoro-naphthalen-2-yl]-acetic acid]",17.9 nM
